In patent EP4785942A1, “NOVEL COMBINATION THERAPY FOR BLOOD CANCER” (Carna Biosciences, Inc., priority 2023, dated 2025):
Like-named read-outs stand apart in the source and are kept apart here.

What was measured:
Assay type in all cases: cell-based
THP-1 = test: Cell growth suppression test in monotherapy (resazurin); settings: Homo sapiens, read-out: Cell growth suppression activity IC50
Experimental: (§1) A human acute monocytic leukemia cell line (THP-1), a human acute myeloid leukemia cell line (MV-4-11), a human acute monocytic leukemia cell line (MOLM-14), and a human erythroleukemia cell line (TF-1) were cultured in a 5% CO2 incubator using a RPMI1640 medium (Roswell Park Memorial Institute medium, nacalai tesque) comprising 10% Fetal bovine serum (Thermo Scientific, SIGMA-ALDRICH, or Cytiva) and 1% penicillin/streptomycin (nacalai tesque).
(§2) THP-1 cells and MV-4-11 cells at 2×10^4 cells/well, and MOLM-14 cells and TF-1 cells at 5×10^3 cells/well were each seeded to a 96 well plate (cell plate), and thereto was added a test compound diluted with the medium so that the final concentration thereof would be 3 nM to 30 µM (final DMSO concentration: 0.3%). After the resulting mixture was cultured for 72 hours, a resazurin reagent (nacalai tesque) was added thereto. After 3 hours, a fluorescence at an excitation wavelength of 560 nm and a fluorescence wavelength of 590 nm was measured, and each IC50 value of the inhibitory activity was calculated by a criterion in which a well without the compound and without the cells was set to be 100%, and a well without the compound and with cells was set to be 0%.

MOLM-14 = test: as above; settings: Homo sapiens, read-out: Cell growth suppression activity IC50
Experimental: as §1, §2

TF-1 = test: as above; settings: Homo sapiens, read-out: Cell growth suppression activity IC50
Experimental: as §1, §2

MV-4-11 = test: as above; settings: Homo sapiens, read-out: Cell growth suppression activity IC50
Experimental: as §1, §2

THP-1 cells = test: Dose-response test of DNA methyltransferase inhibitor in the presence of compound (I); settings: Homo sapiens, read-out: THP-1 cell growth suppression activity azacitidine IC50 (converted)
Experimental: as §2
Changes in the IC50 value of a DNA methyltransferase inhibitor (azacitidine) in the presence of the compound (I) were investigated.

[1] = THP-1 cells, monotherapy, cultured for 72 hours
[2] = MOLM-14 cells, monotherapy, cultured for 72 hours
[3] = TF-1 cells, monotherapy, cultured for 72 hours
[4] = MV4-11, MV-4-11 cells, monotherapy, cultured for 72 hours

IC50 (THP-1; [1]) [µM] | IC50 (MOLM-14; [2]) [µM] | IC50 (MV-4-11; [4]) [µM] | IC50 (THP-1 cells; THP-1, Concentration of compound (I) 0 µM (DMSO-added control)) [µM] | IC50 (THP-1 cells; THP-1, Concentration of compound (I) 3 µM) [µM] | Compound | IC50 (THP-1; THP-1, 72 h) [µM] | IC50 (MOLM-14; MOLM-14, 72 h) [µM] | IC50 (TF-1; TF-1, 72 h) [µM] | IC50 (MV-4-11; MV4-11, 72 h) [µM] | IC50 (TF-1; [3]) [µM]
– | – | – | – | – | Nc1ncn([C@H]2C[C@H](O)[C@@H](CO)O2)c(=O)n1 [Decitabine, decitabine] | > 30 | 0.16 | 0.12 | 0.54 | –
4.07 | 0.16 | 0.19 | – | – | CCOC(=O)C1=C(NN2CCN(CC(F)(F)F)CC2)O/C(=C\c2c[nH]c3ncccc23)C1=O [Compound (I), ethyl 5-[(1H-pyrrolo[2,3-b]pyridin-3-yl)methylene]-4-oxo-2-{[4-(2,2,2-trifluoroethyl)piperazinyl]amino}-4,5-dihydrofuran-3-carboxylate] | – | – | – | – | 0.34
7.39 | 2.85 | 1.2 | 6.93 | 2.03 | Nc1ncn([C@@H]2O[C@H](CO)[C@@H](O)[C@H]2O)c(=O)n1 [Azacitidine, azacitidine] | – | – | – | – | 1.92
